Laboratory results: patent US20250161216A1, “CATIONIC LIPID ANALOGUES, COMPOSITIONS AND USES THEREOF” (GUANGZHOU LIDE BIOMEDICINE TECHNOLOGY CO., LTD., priority 2022, published 2025)

Key:
[1] = system: C57BL/6 mice; assay: In vivo expression level of Luciferase-mRNA delivered by intravenous injection (bioluminescence imaging); details: mRNA-loaded nanoparticles, intravenous (tail vein), 5 μg Luciferase-mRNA, 6 hours; for Fluorescence intensity of liver: compounds of Example 1
Description: (§1) Luciferase-mRNA was used as an mRNA model; and the cationic lipid analogues of Examples 1-5 were used to prepare drug-loaded nanoparticles according to the method of Example 6.
200 μL of nanoparticles containing 5 μg Luciferase-mRNA or the drug-loaded nanoparticles prepared above were injected into tail veins of 6-8 week-old C57BL/6 mice, and 200 μL of 1×PBS solution containing 3 mg D-Luciferin potassium salt was intraperitoneally injected into the mice 6 hours later. After waiting for 10 minutes, an in vivo expression level of the mRNA was evaluated by bioluminescence imaging.

[2] = system: C57BL/6 mice; assay: In vivo expression level of Luciferase-mRNA delivered by intramuscular injection (bioluminescence imaging); details: mRNA-loaded nanoparticles, intramuscular (leg muscle), 5 μg Luciferase-mRNA, 6 hours
Description: as §1
100 μL of nanoparticles containing 5 μg Luciferase-mRNA or the drug-loaded nanoparticles prepared above were injected into the leg muscles of 6-8 week-old C57BL/6 mice, and 200 μL of 1×PBS solution containing 3 mg D-Luciferin potassium salt was intraperitoneally injected into the mice 6 hours later. After waiting for 10 minutes, an in vivo expression level of the mRNA was evaluated by bioluminescence imaging.

Row | Compound | Local fluorescence intensity ([2]; compounds of Example 2) | Fluorescence intensity of liver [1] | further results
1 | CCCCCCCC/C=C\CCCCCCCC(=O)N(CCC)C(C(=O)NCCN(C)CCNC(=O)C(C(C)C)N(CCC)C(=O)CCCCCCC/C=C\CCCCCCCC)C(C)C (stereo not drawn) [A1I4R21C18-1] | 2.26E+07 | – | Fluorescence intensity of spleen ([1]; compounds of Example 2): 2.76E+05
2 | CCCCC/C=C\C/C=C\CCCCCCCC(=O)N(CCC)C(C(=O)NCCN(C)CCNC(=O)C(C(C)C)N(CCC)C(=O)CCCCCCC/C=C\C/C=C\CCCCC)C(C)C (stereo not drawn) [A1I4R21C18-2] | 3.17E+05 | – | Fluorescence intensity of spleen ([1]; compounds of Example 2): 6.62E+05
3 | CCCCCCCC/C=C\CCCCCCCC(=O)N(CCO)C(C(=O)NCCN(C)CCNC(=O)C(C(C)C)N(CCO)C(=O)CCCCCCC/C=C\CCCCCCCC)C(C)C (stereo not drawn) [A1I4R22C18-1] | 2.86E+04 | – | Fluorescence intensity of spleen ([1]; compounds of Example 2): 3.18E+05
4 | CCCCCCCC/C=C\CCCCCCCC(=O)N(CCOC)C(C(=O)NCCN(C)CCNC(=O)C(C(C)C)N(CCOC)C(=O)CCCCCCC/C=C\CCCCCCCC)C(C)C (stereo not drawn) [A1I4R23C18-1] | 1.77E+05 | – | Fluorescence intensity of spleen ([1]; compounds of Example 2): 3.11E+05
5 | CCCCC/C=C\C/C=C\CCCCCCCC(=O)N(CCOC)C(C(=O)NCCN(C)CCNC(=O)C(C(C)C)N(CCOC)C(=O)CCCCCCC/C=C\C/C=C\CCCCC)C(C)C (stereo not drawn) [A1I4R23C18-2] | 8.72E+05 | – | Fluorescence intensity of spleen ([1]; compounds of Example 2): 9.64E+05
6 | CCCCCCCCCCCCCCCCCC(=O)N(CCOC)C(C(=O)NCCN(C)CCNC(=O)C(C(C)C)N(CCOC)C(=O)CCCCCCCCCCCCCCCCC)C(C)C (stereo not drawn) [A1I4R23C18] | 7.53E+04 | – | Fluorescence intensity of spleen ([1]; compounds of Example 2): 1.51E+05
7 | CCCCC/C=C\C/C=C\CCCCCCCC(=O)N(CCCCCO)C(C(=O)NCCN(C)CCNC(=O)C(C(C)C)N(CCCCCO)C(=O)CCCCCCC/C=C\C/C=C\CCCCC)C(C)C (stereo not drawn) [A1I4R27C18-2] | 1.67E+04 | – | –
8 | CCCCC/C=C\C/C=C\CCCCCCCC(=O)N(CCCCCCO)C(C(=O)NCCN(C)CCNC(=O)C(C(C)C)N(CCCCCCO)C(=O)CCCCCCC/C=C\C/C=C\CCCCC)C(C)C (stereo not drawn) [A1I4R28C18-2] | 1.72E+06 | – | –
9 | CCCC/C=C\C/C=C\CCCCCCCC(=O)N(C(C(=O)NCCN(C)CCNC(=O)C(C(C)C)N(C(=O)CCCCCCC/C=C\C/C=C\CCCCC)C(C)(CO)CO)C(C)C)C(C)(CO)CO (stereo not drawn) [A1I4R29C18-2] | 2.99E+04 | – | –
10 | CCCCC/C=C\C/C=C\CCCCCCCC(=O)N(C(C(=O)NCCN(C)CCNC(=O)C(C(C)C)N(C(=O)CCCCCCC/C=C\C/C=C\CCCCC)C(CO)(CO)CO)C(C)C)C(O)(CO)CO (stereo not drawn) [A1I4R30C18-2] | 2.05E+04 | – | –
11 | CCCCC/C=C\C/C=C\CCCCCCCC(=O)N(CCCOCC)C(C(=O)NCCN(C)CCNC(=O)C(C(C)C)N(CCCOCC)C(=O)CCCCCCC/C=C\C/C=C\CCCCC)C(C)C (stereo not drawn) [A1I4R31C18-2] | 5.21E+04 | – | –
12 | CCCCC/C=C\C/C=C\CCCCCCCC(=O)N(CCCOC(C)C)C(C(=O)NCCN(C)CCNC(=O)C(C(C)C)N(CCCOC(C)C)C(=O)CCCCCCC/C=C\C/C=C\CCCCC)C(C)C (stereo not drawn) [A1I4R32C18-2] | 2.57E+04 | – | –
13 | CCCC/C=C\C/C=C\CCCCCCCC(=O)N(C(CC)COC)C(C(=O)NCCN(C)CCNC(=O)C(C(C)C)N(C(=O)CCCCCCC/C=C\C/C=C\CCCCC)C(CC)COC)C(C)C (stereo not drawn) [A1I4R33C18-2] | 1.02E+05 | – | –
14 | CCCC/C=C\C/C=C\CCCCCCCC(=O)N(CC(OC)OC)C(C(=O)NCCN(C)CCNC(=O)C(C(C)C)N(CC(OC)OC)C(=O)CCCCCCC/C=C\C/C=C\CCCCC)C(C)C (stereo not drawn) [A1I4R34C18-2] | 5.58E+05 | – | –
15 | CCCC/C=C\C/C=C\CCCCCCCC(=O)N(CC1CCCO1)C(C(=O)NCCN(C)CCNC(=O)C(C(C)C)N(CC1CCCO1)C(=O)CCCCCCC/C=C\C/C=C\CCCCC)C(C)C (stereo not drawn) [A1I4R35C18-2] | 3.38E+05 | – | –
16 | CCCC/C=C\C/C=C\CCCCCCCC(=O)N(CCOCCO)C(C(=O)NCCN(C)CCNC(=O)C(C(C)C)N(CCOCCO)C(=O)CCCCCCC/C=C\C/C=C\CCCCC)C(C)C (stereo not drawn) [A1I4R36C18-2] | 5.68E+04 | – | –
17 | CCCC/C=C\C/C=C\CCCCCCCC(=O)N(CCCO)C(C(=O)NCCN(C)CCNC(=O)C(C(C)C)N(CCCO)C(=O)CCCCCCC/C=C\C/C=C\CCCCC)C(C)C (stereo not drawn) [A1I4R42C18-2] | 7.04E+04 | – | –

Row | Compound | Local fluorescence intensity ([2]; compounds of Example 2) | Fluorescence intensity of liver [1] | further results
18 | CCCC/C=C\C/C=C\CCCCCCCC(=O)N(CCCOC)C(C(=O)NCCN(C)CCNC(=O)C(C(C)C)N(CCCOC)C(=O)CCCCCCC/C=C\C/C=C\CCCCC)C(C)C (stereo not drawn) [A1I4R43C18-2] | 6.57E+04 | – | –
19 | CCCCC/C=C\C/C=C\CCCCCCCC(=O)N(CC1CCOCC1)C(C(=O)NCCN(C)CCNC(=O)C(C(C)C)N(CC1CCOCC1)C(=O)CCCCCCC/C=C\C/C=C\CCCCC)C(C)C (stereo not drawn) [A1I4R48C18-2] | 8.55E+04 | – | –
20 | CCCCCCCCCCCCCC(=O)N(CCO)C(C(=O)NCCN(CCNC(=O)C(C(C)C)N(CCO)C(=O)CCCCCCCCCCCCC)CCNC(=O)C(C(C)C)N(CCO)C(=O)CCCCCCCCCCCCC)C(C)C (stereo not drawn) [A1I5R22C14] | – | – | Fluorescence intensity of spleen ([1]; compounds of Example 3): 1.20E+06; Local fluorescence intensity ([2]; compounds of Example 3): 1.08E+05
21 | CCCCCCCCSSCCC(=O)N(CCO)C(C(=O)NCCN(CCNC(=O)C(C(C)C)N(CCO)C(=O)CCSSCCCCCCCC)CCNC(=O)C(C(C)C)N(CCO)C(=O)CCSSCCCCCCCC)C(C)C (stereo not drawn) [A1I5R22S13] | – | – | Fluorescence intensity of spleen ([1]; compounds of Example 3): 1.60E+06; Local fluorescence intensity ([2]; compounds of Example 3): 5.74E+05
22 | CCCCCCCCCCSSCCC(=O)N(C1CCCCCC1)C(C(=O)NCCN(CCNC(=O)C(C(C)C)N(C(=O)CCSSCCCCCCCCCC)C1CCCCCC1)CCNC(=O)C(C(C)C)N(C(=O)CCSSCCCCCCCCCC)C1CCCCCC1)C(C)C (stereo not drawn) [A1I5R26S15] | – | – | Fluorescence intensity of spleen ([1]; compounds of Example 3): 1.30E+05; Local fluorescence intensity ([2]; compounds of Example 3): 9.90E+05
23 | CC/C=C\C/C=C\C/C=C\CCCCCCCC(=O)N(CCN(C)C)C(C(=O)NCCCCCCCCCCCCCCCCCC)C1CCCCC1 (stereo not drawn) [A23I18R1C18-3] | – | 4.14E+06 | –
24 | CCCCCCCCCCCCCCCCCCNC(=O)C(C1CCCCC1)N(CCN(C)C)C(=O)CCCCCCCCCCCCCCCCC (stereo not drawn) [A23I18R1C18] | – | 9.09E+04 | –
25 | CCCCCCCCCCCCC#CC#CCCCCCCCCC(=O)N(CCN(C)C)C(C(=O)NCCCCCCCCCCCCCCCCCC)C1CCCCC1 (stereo not drawn) [A23I18R1C23] | – | 6.11E+06 | –
26 | CCCCCCCC/C=C\CCCCCCCC(=O)N(CCCN(C)C)C(C(=O)NCCCCCCCCCCCCCCCCCC)C1CCCCC1 (stereo not drawn) [A23I18R2C18-1] | – | 1.29E+06 | –
27 | CC/C=C\C/C=C\C/C=C\CCCCCCCC(=O)N(CCCN(C)C)C(C(=O)NCCCCCCCCCCCCCCCCCC)C1CCCCC1 (stereo not drawn) [A23I18R2C18-3] | – | 9.49E+05 | –
28 | CCCCCCCCCCCCC#CC#CCCCCCCCCC(=O)N(CCCN(C)C)C(C(=O)NCCCCCCCCCCCCCCCCCC)C1CCCCC1 (stereo not drawn) [A23I18R2C23] | – | 2.37E+06 | –
29 | CCCCCCCC/C=C\CCCCCCCC(=O)N(CCCN(CC)CC)C(C(=O)NCCCCCCCCCCCCCCCCCC)C1CCCCC1 (stereo not drawn) [A23I18R3C18-1] | – | 1.26E+06 | –
30 | CCCCC/C=C\C/C=C\CCCCCCCC(=O)N(CCCN(CC)CC)C(C(=O)NCCCCCCCCCCCCCCCCCC)C1CCCCC1 (stereo not drawn) [A23I18R3C18-2] | – | 4.86E+06 | –
31 | CC/C=C\C/C=C\C/C=C\CCCCCCCC(=O)N(CCCN(CC)CC)C(C(=O)NCCCCCCCCCCCCCCCCCC)C1CCCCC1 (stereo not drawn) [A23I18R3C18-3] | – | 1.13E+06 | –
32 | CCCCCCCCCCCCCCCCCCNC(=O)C(C1CCCCC1)N(CCCN(CC)CC)C(=O)CCCCCCCCCCCCCCCCC (stereo not drawn) [A23I18R3C18] | – | 2.14E+03 | –
33 | CCCCCCCCCCCCC#CC#CCCCCCCCCC(=O)N(CCCN(CC)CC)C(C(=O)NCCCCCCCCCCCCCCCCCC)C1CCCCC1 (stereo not drawn) [A23I18R3C23] | – | 7.89E+05 | –
